Measurements published in PubChem BioAssay AID330 (DTP/NCI, 2004).
Several values for one entry are separate records, joined by “and”; a condition that tells them apart may be missing. Equal values may be shown once. Inconclusive results and toxic doses are left out.

Test system: P388 leukemia ip, CD2F1 mice, survival T/C
Experiment: NCI In Vivo Anticancer Drug Screen. Data for tumor model P388 Leukemia (intraperitoneal) in CD2F1 (CDF1) mice
Settings: endpoint: median survival time, higher = longer survival
How it was run: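 Mice carrying the transplanted tumor received test compound or vehicle. Survival was recorded in each group, and the value is the treated-group measurement divided by that of the vehicle-treated control group.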

[1] = dose: 50.0 mg/kg/injection, schedule: Q01DX009 (ip), vehicle: Klucel (hydroxypropylcellulose) (HPC)
[2] = dose: 100.0 mg/kg/injection, schedule: Q01DX009 (ip), vehicle: Klucel (hydroxypropylcellulose) (HPC)
[3] = dose: 60.0 mg/kg/injection, schedule: Q01DX005 (ip), vehicle: saline with Tween-80
[4] = dose: 120.0 mg/kg/injection, schedule: Q01DX005 (ip), vehicle: saline with Tween-80
[5] = dose: 25.0 mg/kg/injection, schedule: Q04DX003 (ip), vehicle: Klucel (hydroxypropylcellulose) (HPC)
[6] = dose: 50.0 mg/kg/injection, schedule: Q04DX003 (ip), vehicle: Klucel (hydroxypropylcellulose) (HPC)
[7] = dose: 100.0 mg/kg/injection, schedule: Q04DX003 (ip), vehicle: Klucel (hydroxypropylcellulose) (HPC)
[8] = dose: 50.0 mg/kg/injection, schedule: Q01DX005 (ip), vehicle: Klucel (hydroxypropylcellulose) (HPC)
[9] = dose: 100.0 mg/kg/injection, schedule: Q01DX005 (ip), vehicle: Klucel (hydroxypropylcellulose) (HPC)
[10] = dose: 200.0 mg/kg/injection, schedule: Q01DX005 (ip), vehicle: Klucel (hydroxypropylcellulose) (HPC)
[11] = dose: 50.0 mg/kg/injection, schedule: Q01DX009 (ip), vehicle: saline with Tween-80
[12] = dose: 200.0 mg/kg/injection, schedule: Q01DX009 (ip), vehicle: saline with Tween-80
[13] = dose: 3.75 mg/kg/injection, schedule: Q01DX005 (ip), vehicle: saline
[14] = dose: 7.5 mg/kg/injection, schedule: Q01DX005 (ip), vehicle: saline
[15] = dose: 15.0 mg/kg/injection, schedule: Q01DX005 (ip), vehicle: saline
[16] = dose: 30.0 mg/kg/injection, schedule: Q01DX005 (ip), vehicle: saline
[17] = dose: 12.5 mg/kg/injection, schedule: Q01DX009 (ip), vehicle: saline with Tween-80
[18] = dose: 25.0 mg/kg/injection, schedule: Q01DX009 (ip), vehicle: saline with Tween-80
[19] = dose: 25.0 mg/kg/injection, schedule: Q01DX009 (ip), vehicle: other
[20] = dose: 50.0 mg/kg/injection, schedule: Q01DX009 (ip), vehicle: other
[21] = dose: 100.0 mg/kg/injection, schedule: Q01DX009 (ip), vehicle: other
[22] = dose: 50.0 mg/kg/injection, schedule: Q01DX005 (ip), vehicle: saline with Tween-80
[23] = dose: 100.0 mg/kg/injection, schedule: Q01DX005 (ip), vehicle: saline with Tween-80
[24] = dose: 200.0 mg/kg/injection, schedule: Q01DX005 (ip), vehicle: saline with Tween-80

COC(=O)CCc1c(C)nc(N(C)C)oc1=O
T/C (dose: 60.0 mg/kg/injection, schedule: Q01DX005 (ip), vehicle: saline): 100 % of control
T/C (dose: 120.0 mg/kg/injection, schedule: Q01DX005 (ip), vehicle: saline): 100 % of control
T/C (dose: 240.0 mg/kg/injection, schedule: Q01DX005 (ip), vehicle: saline): 99 % of control

CC(=O)NNc1ccc(Cl)cc1[N+](=O)[O-]
T/C [1]: 96 % of control
T/C [2]: 101 % of control

CC(/C=C/c1ccco1)=N\NC(=S)Nc1ccc(Cl)cc1
T/C (dose: 100.0 mg/kg/injection, schedule: Q01DX001 (ip), vehicle: Klucel (hydroxypropylcellulose) (HPC)): 91 % of control
T/C (dose: 200.0 mg/kg/injection, schedule: Q01DX001 (ip), vehicle: Klucel (hydroxypropylcellulose) (HPC)): 100 % of control
T/C (dose: 400.0 mg/kg/injection, schedule: Q01DX001 (ip), vehicle: Klucel (hydroxypropylcellulose) (HPC)): 100 % of control

C=C(C)C#CCN(CCO)C(C)C
T/C [3]: 102 % of control
T/C [4]: 98 % of control

NC1(c2ccccc2)C2CC3CC(C2)CC1C3 (stereo not given)
T/C [5]: 101 % of control
T/C [6]: 102 % of control
T/C [7]: 109 % of control

C/C=C1\CN2CCC34c5ccccc5N5C(C6C7CC8N(CCC89c8ccccc8N(C(C)=O)C69)C/C7=C\C)OCC(C1CC23)C54 (stereo not given)
T/C (dose: 12.06 mg/kg/injection, schedule: Q01DX009 (ip), vehicle: saline with Tween-80): 100 % of control
T/C (dose: 24.12 mg/kg/injection, schedule: Q01DX009 (ip), vehicle: saline with Tween-80): 107 % of control
T/C (dose: 48.25 mg/kg/injection, schedule: Q01DX009 (ip), vehicle: saline with Tween-80): 109 % of control

CCOC(=O)N1N=C(c2ccccc2)OC2(N3CCCC3)CCC(C(C)(C)C)CC12 (stereo not given)
T/C [8]: 89 % of control
T/C [9]: 96 % of control
T/C [10]: 96 % of control

COC(=O)c1ccc(C)cc1C(=O)OC
T/C (dose: 50.0 mg/kg/injection, schedule: Q04DX003 (ip), vehicle: saline with Tween-80): 100 % of control
T/C (dose: 100.0 mg/kg/injection, schedule: Q04DX003 (ip), vehicle: saline with Tween-80): 100 % of control
T/C (dose: 200.0 mg/kg/injection, schedule: Q04DX003 (ip), vehicle: saline with Tween-80): 104 % of control

CC(C)CC1COC(=O)C(CC(C)C)NC(=O)COCC(=O)NC(CC(C)C)C(=O)OCC(CC(C)C)NC(=O)COCC(=O)N1 (stereo not given)
T/C (dose: 60.0 mg/kg/injection, schedule: Q01DX005 (ip), vehicle: Klucel (hydroxypropylcellulose) (HPC)): 99 % of control
T/C (dose: 120.0 mg/kg/injection, schedule: Q01DX005 (ip), vehicle: Klucel (hydroxypropylcellulose) (HPC)): 100 % of control
T/C (dose: 240.0 mg/kg/injection, schedule: Q01DX005 (ip), vehicle: Klucel (hydroxypropylcellulose) (HPC)): 101 % of control

CSc1nc(=O)c(=O)nc(Nc2ccccc2)n1-c1ccccc1
T/C [11]: 86 % of control
T/C [12]: 87 % of control

CN1CCCC1=O
T/C (dose: 50.0 mg/kg/injection, schedule: Q01DX009 (ip), vehicle: saline): 95 % of control

CCCCCCC(=O)CC(SCCN)c1ccccc1Cl (stereo not given)
T/C [13]: 100 % of control
T/C [14]: 96 % of control
T/C [15]: 97 % of control
T/C [16]: 99 % of control

CCOC(=O)/C=C/c1c[nH]c(C(=O)OCC)c1
T/C [1]: 93 % of control
T/C [2]: 91 % of control
T/C (dose: 200.0 mg/kg/injection, schedule: Q01DX009 (ip), vehicle: Klucel (hydroxypropylcellulose) (HPC)): 93 % of control
T/C (dose: 400.0 mg/kg/injection, schedule: Q01DX009 (ip), vehicle: Klucel (hydroxypropylcellulose) (HPC)): 108 % of control

CN1C(=O)N(C2CCCCC2)C(=O)C(C)(CN2CCCCC2)C1=O (stereo not given)
T/C [17]: 102 % of control
T/C [18]: 100 % of control
T/C [11]: 102 % of control
T/C (dose: 50.0 mg/kg/injection, schedule: Q01DX009 (sc), vehicle: saline with Tween-80): 100 % of control
T/C (dose: 200.0 mg/kg/injection, schedule: Q01DX009 (sc), vehicle: saline with Tween-80): 108 % of control

CCOC(=O)N(C)N=NC
T/C [13]: 100 % of control
T/C [14]: 107 % of control and 109 % of control
T/C [15]: 105 % of control
T/C [16]: 120 % of control

CCC[CH2][Sn]([CH2]CCC)([CH2]CCC)[C]1(CCCC2CO2)SCCCS1 (stereo not given)
T/C [17]: 86 % of control
T/C [18]: 94 % of control
T/C [11]: 108 % of control

Oc1ccc(N=Nc2ccc3ccc4cccc5ccc2c3c45)c2cccnc12
T/C [5]: 101 % of control
T/C [6]: 101 % of control
T/C [7]: 100 % of control

CCCCCCCCCCCCCCCCS(=O)CC(O)COC(=O)c1ccc(C(=O)OCC(O)CS(=O)CCCCCCCCCCCCCCCC)cc1 (stereo not given)
T/C [19]: 104 % of control
T/C [20]: 114 % of control
T/C [21]: 122 % of control

CC12CCC(OC3OC(CO)C(O)C(O)C3O)CC1CCC1C2CCC2(C)C(c3ccc(=O)oc3)CCC12O (stereo not given)
T/C (dose: 0.35 mg/kg/injection, schedule: Q01DX009 (ip), vehicle: saline): 96 % of control
T/C (dose: 0.7 mg/kg/injection, schedule: Q01DX009 (ip), vehicle: saline): 102 % of control
T/C (dose: 1.4 mg/kg/injection, schedule: Q01DX009 (ip), vehicle: saline): 100 % of control

CCc1cccc(CC)c1NC(=O)c1ccccc1Br
T/C [3]: 97 % of control
T/C [4]: 96 % of control
T/C (dose: 240.0 mg/kg/injection, schedule: Q01DX005 (ip), vehicle: saline with Tween-80): 112 % of control

OC1COC(c2nn(-c3ccccc3)c3nc4ccccc4nc23)C1O (stereo not given)
T/C [22]: 87 % of control
T/C [23]: 87 % of control
T/C [24]: 87 % of control

C=CC(=O)NC1(c2ccccc2)CN2CCC1CC2 (stereo not given)
T/C [1]: 96 % of control

CC12CCC(=O)C=C1CCCC2=O (stereo not given)
T/C (dose: 50.0 mg/kg/injection, schedule: Q04DX003 (ip), vehicle: saline): 95 % of control
T/C (dose: 100.0 mg/kg/injection, schedule: Q04DX003 (ip), vehicle: saline): 100 % of control
T/C (dose: 200.0 mg/kg/injection, schedule: Q04DX003 (ip), vehicle: saline): 90 % of control

C=CC1CC(NC(=O)c2ccccc2)C(=O)O1 (stereo not given)
T/C [22]: 101 % of control
T/C [23]: 104 % of control
T/C [24]: 99 % of control

CCCNC(=O)OCc1cnc2ccc(OC)cc2c1COC(=O)NCCC
T/C [8]: 96 % of control
T/C [9]: 96 % of control
T/C [10]: 93 % of control

COc1c(O)c(O)cc2c1-c1ccc(OC)c(=O)cc1C(NC(C)=O)CC2 (stereo not given)
T/C (dose: 1.25 mg/kg/injection, schedule: Q01DX009 (ip), vehicle: water): 114 % of control
T/C (dose: 2.5 mg/kg/injection, schedule: Q01DX009 (ip), vehicle: water): 117 % of control
T/C (dose: 20.0 mg/kg/injection, schedule: Q01DX009 (ip), vehicle: water): 166 % of control and 177 % of control
T/C (dose: 40.0 mg/kg/injection, schedule: Q01DX009 (ip), vehicle: water): 204 % of control

COc1ccc(CCNC(=O)c2ccc(OC)c(OCc3ccccc3)c2)cc1OC
T/C [19]: 97 % of control
T/C [20]: 95 % of control
T/C [21]: 89 % of control
T/C (dose: 200.0 mg/kg/injection, schedule: Q01DX009 (ip), vehicle: other): 89 % of control
T/C (dose: 400.0 mg/kg/injection, schedule: Q01DX009 (ip), vehicle: other): 90 % of control

O=[N+]([O-])c1ccc(O)cc1C=NCCSc1ccc(Cl)cc1
T/C [11]: 100 % of control
T/C (dose: 100.0 mg/kg/injection, schedule: Q01DX009 (ip), vehicle: saline with Tween-80): 100 % of control
T/C [12]: 103 % of control
